Reference: US10758534B2 (Vertex Pharmaceuticals Incorporated, priority 2014, dated 2020)

Molecular target: T1, F508del (Homo sapiens, UniProt P13569, DEL508-508)
T1 construct: expressed in transfected cells
Assay: Protocol 2: FRET membrane potential optical assay (VIPR), identification of correction compounds
Format: cell-based
Details: F508del CFTR modulator activity; compounds of Table 1; read-out: EC30
From the text: Membrane potential optical methods for assaying F508del modulation properties of compounds.
These voltage sensitive assays are based on the change in fluorescence resonant energy transfer (FRET) between the membrane-soluble, voltage-sensitive dye, DiSBAC2(3), and a fluorescent phospholipid, CC2-DMPE, which is attached to the outer leaflet of the plasma membrane and acts as a FRET donor. Changes in membrane potential (Vm) cause the negatively charged DiSBAC2(3) to redistribute across the plasma membrane and the amount of energy transfer from CC2-DMPE changes accordingly. The changes in fluorescence emission were monitored using VIPR™ II, which is an integrated liquid handler and fluorescent detector designed to conduct cell-based screens in 96- or 384-well microtiter plates.
To identify small molecules that correct the trafficking defect associated with F508del; a single-addition HTS assay format was developed. The cells were incubated in serum-free medium for 16 hrs at 37° C. in the presence or absence (negative control) of test compound. As a positive control, cells plated in 384-well plates were incubated for 16 hrs at 27° C. to “temperature-correct” F508del. The cells were subsequently rinsed 3× with Krebs Ringers solution and loaded with the voltage-sensitive dyes. To activate F508del, 10 μM forskolin and the CFTR potentiator, genistein (20 μM), were added along with Cl^−-free medium to each well. The addition of Cl^−-free medium promoted Cl^− efflux in response to F508del activation and the resulting membrane depolarization was optically monitored using the FRET-based voltage-sensor dyes.
• Bath Solution #1: (in mM) NaCl 160, KCl 4.5, CaCl2 2, MgCl2 1, HEPES 10, pH 7.4 with NaOH. • Chloride-free bath solution: Chloride salts in Bath Solution #1 (above) are substituted with gluconate salts. • CC2-DMPE: Prepared as a 10 mM stock solution in DMSO and stored at −20° C. • DiSBAC2(3): Prepared as a 10 mM stock in DMSO and stored at −20° C. Cell Culture
NIH3T3 mouse fibroblasts stably expressing F508del are used for optical measurements of membrane potential. The cells are maintained at 37° C. in 5% CO2 and 90% humidity in Dulbecco's modified Eagle's medium supplemented with 2 mM glutamine, 10% fetal bovine serum, 1×NEAA, β-ME, 1× pen/strep, and 25 mM HEPES in 175 cm^2 culture flasks. For all optical assays, the cells were seeded at 30,000/well in 384-well matrigel-coated plates and cultured for 2 hrs at 37° C. before culturing at 27° C. for 24 hrs for the potentiator assay. For the correction assays, the cells are cultured at 27° C. or 37° C. with and without compounds for 16-24 hours.

T1 sequence (P13569 with tags, fused parts or gaps DEL508-508): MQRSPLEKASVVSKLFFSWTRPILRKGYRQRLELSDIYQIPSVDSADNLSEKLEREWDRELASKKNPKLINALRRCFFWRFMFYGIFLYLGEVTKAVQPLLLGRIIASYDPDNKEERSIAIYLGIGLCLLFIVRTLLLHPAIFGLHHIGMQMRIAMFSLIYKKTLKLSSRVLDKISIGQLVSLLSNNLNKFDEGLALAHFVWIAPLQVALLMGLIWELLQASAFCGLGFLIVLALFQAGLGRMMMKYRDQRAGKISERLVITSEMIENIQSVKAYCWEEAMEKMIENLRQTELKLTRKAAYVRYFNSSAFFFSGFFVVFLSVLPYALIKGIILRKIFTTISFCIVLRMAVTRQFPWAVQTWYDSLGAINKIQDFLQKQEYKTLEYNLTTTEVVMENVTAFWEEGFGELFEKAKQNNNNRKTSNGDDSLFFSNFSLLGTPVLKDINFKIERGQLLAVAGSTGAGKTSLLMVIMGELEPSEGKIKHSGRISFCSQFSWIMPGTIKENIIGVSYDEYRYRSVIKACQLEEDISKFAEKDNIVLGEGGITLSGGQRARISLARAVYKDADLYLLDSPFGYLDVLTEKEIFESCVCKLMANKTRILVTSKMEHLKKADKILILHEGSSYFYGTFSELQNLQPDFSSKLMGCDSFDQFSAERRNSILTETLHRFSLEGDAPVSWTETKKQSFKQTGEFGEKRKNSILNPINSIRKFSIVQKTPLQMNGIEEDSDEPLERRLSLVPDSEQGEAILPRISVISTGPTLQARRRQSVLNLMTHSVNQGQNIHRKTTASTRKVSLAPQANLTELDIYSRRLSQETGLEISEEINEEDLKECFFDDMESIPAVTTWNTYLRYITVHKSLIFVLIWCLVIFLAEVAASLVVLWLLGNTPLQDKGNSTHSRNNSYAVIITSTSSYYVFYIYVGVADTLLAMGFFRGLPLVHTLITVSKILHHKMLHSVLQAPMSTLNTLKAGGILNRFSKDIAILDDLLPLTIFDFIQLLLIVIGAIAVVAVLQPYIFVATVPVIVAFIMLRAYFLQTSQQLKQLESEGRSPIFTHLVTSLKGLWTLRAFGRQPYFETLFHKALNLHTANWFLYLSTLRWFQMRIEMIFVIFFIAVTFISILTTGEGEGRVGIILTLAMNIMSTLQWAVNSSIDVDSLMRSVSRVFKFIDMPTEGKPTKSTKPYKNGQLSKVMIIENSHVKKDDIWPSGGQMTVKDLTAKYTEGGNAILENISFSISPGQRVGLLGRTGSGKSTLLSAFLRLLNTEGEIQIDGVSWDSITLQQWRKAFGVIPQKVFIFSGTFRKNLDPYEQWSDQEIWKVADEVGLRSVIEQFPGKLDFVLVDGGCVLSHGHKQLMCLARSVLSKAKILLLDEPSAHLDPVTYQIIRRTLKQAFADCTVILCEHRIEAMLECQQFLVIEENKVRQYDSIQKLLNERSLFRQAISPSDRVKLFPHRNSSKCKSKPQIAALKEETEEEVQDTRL

| SMILES | EC30 |
| --- | --- |
| Cc1nc(-c2cccc(Oc3cccc(S(=O)(=O)NC(=O)c4cccnc4N4CC(C)CC4(C)C)n3)c2)no1 (centres unmarked) [Compound 2263, N—[[6-[3-(5-methyl-1,2,4-oxadiazol-3-yl)phenoxy]-2-pyridyl]sulfonyl]-2-(2,2,4-trimethylpyrrolidin-1-yl)pyridine-3-carboxamide] | < 3 µM |
| COc1cccc(-c2ccc(C(=O)NS(=O)(=O)c3cccnc3N)c(N3C[C@@H](C)CC3(C)C)n2)c1 [Compound 2164, N-[(2-amino-3-pyridyl)sulfonyl]-6-(3-methoxyphenyl)-2-[(4S)-2,2,4-trimethylpyrrolidin-1-yl]pyridine-3-carboxamide] | < 3 µM |
| CC(C)COc1cccc(-c2ccc(C(=O)NS(=O)(=O)c3ccc[nH]c3=O)c(N3C[C@@H](C)CC3(C)C)n2)c1 [Compound 2267, 6-(3-isobutoxyphenyl)-N-[(2-oxo-1H-pyridin-3-yl)sulfonyl]-2-[(4S)-2,2,4-trimethylpyrrolidin-1-yl]pyridine-3-carboxamide] | < 3 µM |
| CC1CN(c2ncccc2C(=O)NS(=O)(=O)c2cccc(N(C)CC(=O)OC(C)(C)C)n2)C(C)(C)C1 (centres unmarked) [Compound 2251, tert-butyl 2-[methyl-[6-[[2-(2,2,4-trimethylpyrrolidin-1-yl)pyridine-3-carbonyl]sulfamoyl]-2-pyridyl]amino]acetate] | < 3 µM |
| CCOc1ccc(CCNc2cccc(S(=O)(=O)NC(=O)c3cccnc3N3CC(C)CC3(C)C)n2)cc1 (centres unmarked) [Compound 2642, N—[[6-[2-(4-ethoxyphenyl)ethylamino]-2-pyridyl]sulfonyl]-2-(2,2,4-trimethylpyrrolidin-1-yl)pyridine-3-carboxamide] | < 3 µM |
| COc1cccc(F)c1-c1ccc(C(=O)NS(=O)(=O)c2cccnc2N)c(N2C[C@@H](C)CC2(C)C)n1 [Compound 2033, N-[(2-amino-3-pyridyl)sulfonyl]-6-(2-fluoro-6-methoxy-phenyl)-2-[(4S)-2,2,4-trimethylpyrrolidin-1-yl]pyridine-3-carboxamide] | < 3 µM |
| CC1CN(c2ncccc2C(=O)NS(=O)(=O)c2cccc(OCCC3CCOCC3)n2)C(C)(C)C1 (centres unmarked) [Compound 2329, N—[[6-(2-tetrahydropyran-4-ylethoxy)-2-pyridyl]sulfonyl]-2-(2,2,4-trimethylpyrrolidin-1-yl)pyridine-3-carboxamide] | < 3 µM |
| COc1ccc(-c2ccc(C(=O)NS(=O)(=O)c3ccc[nH]c3=O)c(N3C[C@@H](C)CC3(C)C)n2)cc1 [Compound 2080, 6-(4-methoxyphenyl)-N-[(2-oxo-1H-pyridin-3-yl)sulfonyl]-2-[(4S)-2,2,4-trimethylpyrrolidin-1-yl]pyridine-3-carboxamide] | 3 to 10 µM |
| CCCC(C)Nc1cccc(S(=O)(=O)NC(=O)c2cccnc2N2CC(C)CC2(C)C)n1 (centres unmarked) [Compound 2197, N—[[6-(1-methylbutylamino)-2-pyridyl]sulfonyl]-2-(2,2,4-trimethylpyrrolidin-1-yl)pyridine-3-carboxamide] | < 3 µM |

Same assay, conditions: Table 3; compounds of Table 1 as modulators of CFTR activity; protocol not stated

| SMILES | EC30 |
| --- | --- |
| CC(C)COc1cc(F)cc(-c2ccc(C(=O)NS(=O)(=O)c3ccn[nH]3)c(N3CCC(CC#N)CC3)n2)c1 [Compound 556, 2-[4-(cyanomethyl)-1-piperidyl]-6-(3-fluoro-5-isobutoxy-phenyl)-N-(1H-pyrazol-5-ylsulfonyl)pyridine-3-carboxamide] | + (“+” means greater than 10 uM) |
| CCCOc1cc(-c2ccc(C(=O)NS(=O)(=O)c3cccc(N)n3)c(N3CC(C)CC3(C)C)n2)ccn1 (centres unmarked) [Compound 491, N-[(6-amino-2-pyridyl)sulfonyl]-6-(2-propoxy-4-pyridyl)-2-(2,2,4-trimethylpyrrolidin-1-yl)pyridine-3-carboxamide] | +++ (“+++” means <3 uM) |
| CC(C)COc1cc(F)cc(-c2ccc(C(=O)NS(=O)(=O)c3ccc[nH]c3=O)c(N3CCC[C@@H](c4ccccc4)C3)n2)c1 [Compound 481, 6-(3-fluoro-5-isobutoxy-phenyl)-N-[(2-oxo-1H-pyridin-3-yl)sulfonyl]-2-[(3S)-3-phenyl-1-piperidyl]pyridine-3-carboxamide] | +++ (“+++” means <3 uM) |
| Cc1cc(C)c(Oc2nc(C)ccc2C(=O)NS(=O)(=O)c2cccc(NC(C)C)n2)c(C)c1 [Compound 482, N-[[6-(isopropylamino)-2-pyridyl]sulfonyl]-6-methyl-2-(2,4,6-trimethylphenoxy)pyridine-3-carboxamide] | +++ (“+++” means <3 uM) |
| Cc1cc(C)c(CN2Cc3cccc(C)c3CC2C(=O)NS(=O)(=O)c2cccc(N)n2)c(C)c1 (centres unmarked) [Compound 95, N-[(6-amino-2-pyridyl)sulfonyl]-5-methyl-2-[(2,4,6-trimethylphenyl)methyl]-3,4-dihydro-H-isoquinoline-3-carboxamide] | +++ (“+++” means <3 uM) |
| COc1cccc(S(=O)(=O)NC(=O)c2ccc(-c3cc(F)cc(OCC(C)C)c3)nc2N2CC(C)CC2(C)C)n1 (centres unmarked) [Compound 795] | +++ (“+++” means <3 uM) |
| COc1cc(-c2ccc(C(=O)NS(=O)(=O)c3cccc(N)n3)c(Oc3c(C)cc(C)cc3C)n2)ccc1O [Compound 768, N-[(6-amino-2-pyridyl)sulfonyl]-6-(4-hydroxy-3-methoxy-phenyl)-2-(2,4,6-trimethylphenoxy)pyridine-3-carboxamide] | ++ (“++” means between 3 uM and 10 uM) |
| Cc1cc(C)c(Oc2nc(-c3ccc(F)c(F)c3)ccc2C(=O)NS(=O)(=O)c2ccc[nH]c2=O)c(C)c1 [Compound 546, 6-(3,4-difluorophenyl)-N-[(2-oxo-1H-pyridin-3-yl)sulfonyl]-2-(2,4,6-trimethylphenoxy)pyridine-3-carboxamide] | ++ (“++” means between 3 uM and 10 uM) |
| COc1ccc(-c2cc(C(=O)NS(=O)(=O)c3ccccc3)n(Cc3c(C)cccc3C)n2)c(OC)c1 [Compound 135, N-(benzenesulfonyl)-5-(2,4-dimethoxyphenyl)-2-[(2,6-dimethylphenyl)methyl]pyrazole-3-carboxamide] | +++ (“+++” means <3 uM) |
| CC(C)(C)c1ccc(C(=O)NS(=O)(=O)c2cccc(N)c2)c(-c2ccc(Cl)cc2)n1 [Compound 223, N-(3-aminophenyl)sulfonyl-6-tert-butyl-2-(4-chlorophenyl)pyridine-3-carboxamide] | +++ (“+++” means <3 uM) |
| C[C@@H]1CC[C@H](C)N1c1nc(C2CCCCC2)ccc1C(=O)NS(=O)(=O)c1cccc(N)n1 [Compound 704, N-[(6-amino-2-pyridyl)sulfonyl]-6-cyclohexyl-2-[(2S,5R)-2,5-dimethylpyrrolidin-1-yl]pyridine-3-carboxamide] | ++ (“++” means between 3 uM and 10 uM) |
| Cc1cc(C)c(Oc2nc(-c3ccncc3F)ccc2C(=O)NS(=O)(=O)c2cccc(N)n2)c(C)c1 [Compound 514, N-[(6-amino-2-pyridyl)sulfonyl]-6-(3-fluoro-4-pyridyl)-2-(2,4,6-trimethylphenoxy)pyridine-3-carboxamide] | + (“+” means greater than 10 uM) |
| COc1cccnc1S(=O)(=O)NC(=O)c1cc2ccccc2n1Cc1c(C)cc(C)cc1C [Compound 258, N-[(3-methoxy-2-pyridyl)sulfonyl]-1-[(2,4,6-trimethylphenyl)methyl]indole-2-carboxamide] | ++ (“++” means between 3 uM and 10 uM) |
| CCc1ccc(-c2nc(C(C)(C)C)ccc2C(=O)NS(=O)(=O)c2cccc(N)c2)cc1 [Compound 359, N-(3-aminophenyl)sulfonyl-6-tert-butyl-2-(4-ethylphenyl)pyridine-3-carboxamide] | +++ (“+++” means <3 uM) |
| Cc1cccc(C)c1Cn1nc(-c2cccc(C(F)F)c2)cc1C(=O)NS(=O)(=O)c1ccccc1 [Compound 315, N-(benzenesulfonyl)-5-[3-(difluoromethyl)phenyl]-2-[(2,6-dimethylphenyl)methyl]pyrazole-3-carboxamide] | +++ (“+++” means <3 uM) |
| Cc1cc(C)c(Oc2nc3ccccc3cc2C(=O)NS(=O)(=O)c2ccccc2)c(C)c1 [Compound 215, N-(benzenesulfonyl)-2-(2,4,6-trimethylphenoxy)quinoline-3-carboxamide] | +++ (“+++” means <3 uM) |
| COc1ccc(F)cc1-c1ccc(C(=O)NS(=O)(=O)c2cccc(N)n2)c(Oc2c(C)cc(C)cc2C)n1 [Compound 700, N-[(6-amino-2-pyridyl)sulfonyl]-6-(5-fluoro-2-methoxy-phenyl)-2-(2,4,6-trimethylphenoxy)pyridine-3-carboxamide] | +++ (“+++” means <3 uM) |
